Test system: phosphorylated ZAP70
Experiment: Phosphorylated ZAP70 in cynomolgus macaque CD8+ T cells from whole blood in vitro (flow cytometry)
Type: cell-based
Conditions: Macaca fascicularis, T-cell, whole blood from six cynomolgus macaques, 2 hrs 37° C., 2 μg/mL anti-CD3 & anti-CD28 + crosslinker 60 minutes, read-out: Average mean EC50±standard deviation, phosphorylated ZAP70
Experimental: To assess these candidate clinical proximal biomarkers of Cbl-b inhibition on T cells, pharmacodynamic analysis was performed. Whole blood was obtained from cynomolgus macaque donors, then incubated with increasing concentrations of Compound 23. The response to Cbl-b inhibition on phosphorylated HS1, ZAP70 and PLCγ2 was measured in CD8^+ T cells using flow cytometry. This technique is highly quantitative and can measure multiple phosphorylation markers in different cell populations within the same sample.
DMSO (Dimethyl sulfoxide) was used to reconstitute Compound 23. Final concentration of DMSO was 0.05% in media for in vitro assays. […]
Stained cells were run on an Attune NxT Acoustic Focusing Flow Cytometer (Thermo Fisher, cat. No. A29004), and data was analyzed using FlowJo (v10.6.1) and GraphPad Prism (v8.00) software. Single lymphocytes were gated for CD8^+ cells (CD45^+/CD8^+) cells, and population frequencies were calculated for each population. The data is quantified by the percent positive. […] As protein becomes phosphorylated the fluorescence increases resulting in a larger fraction of the cells entering that gate. Each population was evaluated for % positive pY759-PLCγ2, pY397-HS1 levels, pY319/Syk (Y352)-ZAP70 levels.

## C[C@H]1CCCN(Cc2cc3c(c(C(F)(F)F)c2)CN(c2cccc([C@]4(c5nncn5C)C[C@@H](C)C4)c2)C3=O)C1 [Compound 23]
  EC50: 173 ± 177 nM

Reference: US20230355599A1, “BIOMARKERS FOR CBL, AND COMPOSITIONS AND METHODS FOR THEIR USE” (NURIX THERAPEUTICS, INC., priority 2022, published 2023)
